{"source": "paper PMC8812516", "about": "(Proceedings of the National Academy of Sciences of the …, 2022)", "origin": "cited, not measured here", "test_system": "Shaker-IR channel", "data": [{"substance": "charybdotoxin", "values": [{"measurement": "effect of inactivation on affinity of toxins", "value": "inactivation does not alter the affinity of toxins for that channel"}]}]}
